Test results reported in ChEMBL document CHEMBL1201862, “PubChem BioAssay data set” (2004).
Calls of active or inactive are those of the source.

Legend:
[1] = NIH-3T3 fibroblast cytotoxicity, dose response, cytotoxicity control, cell-based, fluorescence, Alamar Blue, secondary assay (AID 2327); format: functional;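 also: NIH-3T3 mouse fibroblasts cultured with fluconazole at 8 µg/mL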
[2] = C. albicans growth with fluconazole, confirmation, fluorescence, retest (AID 2467); format: functional, cell-based
[3] = inhibitors of intracellular T. cruzi replication, confirmation, NIH3T3 host cells, beta-gal luminescence (AID 2044); format: functional, cell-based;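 also: intracellular parasites grown in NIH/3T3 mouse fibroblasts as host cells; luminescent beta-galactosidase reporter signal from transgenic T. cruzi replicating inside host cells; inhibitors lower the luminescence signal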
[4] = cytotoxicity toward NIH3T3 fibroblasts, dose response, counter-screen, cell-based, ATP luminescence, mouse fibroblasts (AID 2010); format: functional;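 also: cells exposed to compound for about 90 hours before reading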
[5] = target: Induced myeloid leukemia cell differentiation protein Mcl-1 (Homo sapiens, UniProt Q07820); format: functional
INS1 = test: beta cell apoptosis inhibitors, cytokine rescue, dose response, luminescence, retest (AID 449756); format: functional, cell-based; conditions: Rattus norvegicus;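 also: cell death triggered by IL-1 beta plus TNF-alpha plus IFN-gamma mixture; protective hits raise ATP signal compared with cytokine alone wells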
Albumin = Albumin (Bos taurus, UniProt P02769); test: Counterscreen for inhibitors of T-cell receptor (TCR)-CD3 interaction: Fluorescence-based biochemical high throughput dose response assay to identify inhibitors of T-cell receptor (TCR)-CD3 interaction using a TAMRA-labeled BSA probe.; format: functional
[6] = P. falciparum 3D7-ScDHODH growth inhibitors, dose response, SYBR Green, dry powder samples (AID 1159570); format: functional, cell-based;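 also: parasite growth measured after 72 hours of compound exposure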
[7] = HepG2 cell cytotoxicity, dose response, cytotoxicity control, plate reader, dry powder samples (AID 1159569); format: functional, cell-based;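 also: inhibitor potency with signal falling toward the positive control level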
[8] = P. falciparum Dd2 growth inhibitors, dose response, SYBR Green, cherry-picked samples (AID 1159567); format: functional, cell-based
[9] = P. falciparum Dd2 growth inhibitors, dose response, SYBR Green, dry powder samples (AID 1159566); format: functional, cell-based;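 also: potency for growth inhibition with lower SYBR green DNA signal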
[10] = HepG2 cell cytotoxicity, dose response, cytotoxicity control, cherry-picked samples (AID 1159577); format: functional, cell-based
[11] = P. falciparum ATP4 D1247Y mutant growth inhibitors, dose response, NITD609-resistant line, SYBR Green, dry powder (AID 1159571); format: functional, cell-based;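 also: parasites synchronized at ring stage by sorbitol before testing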
[12] = T. cruzi growth inhibition in host cells, dose response, cell-based, plate reader, dry powder, set 2 (AID 652275); format: functional
[13] = target: Heat shock protein HSP 90-alpha (Homo sapiens, UniProt P07900); format: functional, organism-based
Caspase-6 = target: T1, Caspase-6 (Homo sapiens, UniProt P55212); test: human caspase-6 inhibitors, dose response, biochemical, VEID-R110 fluorescence, cherry-pick (AID 720632)
T1 sequence (P55212 whole entry): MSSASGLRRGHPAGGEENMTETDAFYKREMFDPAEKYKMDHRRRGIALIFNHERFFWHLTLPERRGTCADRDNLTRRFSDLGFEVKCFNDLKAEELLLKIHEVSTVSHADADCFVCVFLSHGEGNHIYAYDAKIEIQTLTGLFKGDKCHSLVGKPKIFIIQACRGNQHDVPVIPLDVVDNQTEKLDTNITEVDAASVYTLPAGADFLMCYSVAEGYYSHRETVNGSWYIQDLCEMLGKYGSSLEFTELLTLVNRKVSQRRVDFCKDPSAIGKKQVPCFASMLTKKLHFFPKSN

[14] = THP-1 cell cytotoxicity, dose response, cytotoxicity control for Vif-APOBEC3G degradation inhibitor project, THP-1 cells (AID 1117359); format: functional; conditions: Human immunodeficiency virus 1, THP-1
Cytochrome P450 2C19 = Cytochrome P450 2C19 (Homo sapiens, UniProt P33261); test: Cytochrome panel assay with activity outcomes. Panel member name: p450-cyp2c19 Compounds with AC50 equal or less than 10 uM are considered active; format: functional; conditions: read-out: AC50
fMet-Leu-Phe receptor = target: T2, fMet-Leu-Phe receptor (Homo sapiens, UniProt P21462); test: FPR ligands, dose response (AID 519); format: functional
T2 sequence (P21462 whole entry): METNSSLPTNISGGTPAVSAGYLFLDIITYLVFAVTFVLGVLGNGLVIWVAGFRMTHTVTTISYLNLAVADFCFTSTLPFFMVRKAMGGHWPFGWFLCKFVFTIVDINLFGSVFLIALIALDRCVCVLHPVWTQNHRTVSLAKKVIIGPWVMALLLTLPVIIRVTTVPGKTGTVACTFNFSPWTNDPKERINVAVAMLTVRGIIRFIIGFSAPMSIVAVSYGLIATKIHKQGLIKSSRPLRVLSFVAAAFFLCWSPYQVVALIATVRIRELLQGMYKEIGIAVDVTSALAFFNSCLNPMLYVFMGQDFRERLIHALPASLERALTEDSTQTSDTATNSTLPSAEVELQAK

Cytochrome P450 2C9 = Cytochrome P450 2C9 (Homo sapiens, UniProt P11712)
[15] = target: T3, Mannose-6-phosphate isomerase (Homo sapiens, UniProt P34949); test: inhibitors of human PMI, primary screen, biochemical, fluorescence intensity, coupled assay (AID 1209)
T3 sequence (P34949 whole entry): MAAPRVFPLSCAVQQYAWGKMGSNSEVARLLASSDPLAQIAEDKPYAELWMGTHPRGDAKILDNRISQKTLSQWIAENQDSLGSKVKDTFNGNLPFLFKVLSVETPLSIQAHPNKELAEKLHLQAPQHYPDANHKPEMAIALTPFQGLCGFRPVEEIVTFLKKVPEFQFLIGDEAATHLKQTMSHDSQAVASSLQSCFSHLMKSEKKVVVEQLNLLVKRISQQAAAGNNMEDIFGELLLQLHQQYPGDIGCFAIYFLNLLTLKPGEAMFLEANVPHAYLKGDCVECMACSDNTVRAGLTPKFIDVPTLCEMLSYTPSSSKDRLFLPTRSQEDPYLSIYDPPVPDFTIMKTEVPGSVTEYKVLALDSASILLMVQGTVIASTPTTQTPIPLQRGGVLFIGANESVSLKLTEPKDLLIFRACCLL

[16] = target: T3, Mannose-6-phosphate isomerase; test: human PMI inhibitors, high substrate, primary screen, biochemical, fluorescence intensity, high mannose 6-phosphate (AID 1220)
[17] = target: T4, Oxysterols receptor LXR-beta (Homo sapiens, UniProt P55055); format: functional, cell-based;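 also: agonist activity at LXR measured by a cell-based luminescence readout across a dose range, run as a counterscreen for daf-12 agonists; HEK293 cells with Gal4-LXR fusion and GAL4-driven luciferase reporter; potency for activation of Gal4-LXR reporter so compounds are agonists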
T4 sequence (P55055 whole entry): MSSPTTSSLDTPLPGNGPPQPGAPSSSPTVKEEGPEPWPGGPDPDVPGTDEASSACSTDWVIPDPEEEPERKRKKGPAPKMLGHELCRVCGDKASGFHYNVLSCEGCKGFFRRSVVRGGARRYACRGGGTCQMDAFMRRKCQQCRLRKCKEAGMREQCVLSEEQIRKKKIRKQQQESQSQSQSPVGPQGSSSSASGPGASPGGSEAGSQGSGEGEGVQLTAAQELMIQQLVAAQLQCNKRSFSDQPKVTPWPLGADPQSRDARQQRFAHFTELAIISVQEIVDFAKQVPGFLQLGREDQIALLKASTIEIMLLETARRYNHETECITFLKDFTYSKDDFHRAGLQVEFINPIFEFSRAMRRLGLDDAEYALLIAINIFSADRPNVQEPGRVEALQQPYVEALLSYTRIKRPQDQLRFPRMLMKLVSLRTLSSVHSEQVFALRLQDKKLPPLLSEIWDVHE

Chain of Induced myeloid leukemia cell differentiation protein Mcl-1 (Q07820 whole entry): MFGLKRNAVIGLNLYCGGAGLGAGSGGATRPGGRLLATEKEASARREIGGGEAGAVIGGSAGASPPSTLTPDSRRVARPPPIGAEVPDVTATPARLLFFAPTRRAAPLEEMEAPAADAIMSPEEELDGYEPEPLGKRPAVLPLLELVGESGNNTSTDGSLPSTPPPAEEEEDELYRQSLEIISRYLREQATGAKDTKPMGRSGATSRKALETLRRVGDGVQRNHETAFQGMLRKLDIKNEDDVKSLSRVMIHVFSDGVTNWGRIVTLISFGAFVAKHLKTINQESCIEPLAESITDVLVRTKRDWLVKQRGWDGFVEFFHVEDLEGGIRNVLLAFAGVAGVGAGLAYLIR
Chain of Cytochrome P450 2C19 (P33261 whole entry): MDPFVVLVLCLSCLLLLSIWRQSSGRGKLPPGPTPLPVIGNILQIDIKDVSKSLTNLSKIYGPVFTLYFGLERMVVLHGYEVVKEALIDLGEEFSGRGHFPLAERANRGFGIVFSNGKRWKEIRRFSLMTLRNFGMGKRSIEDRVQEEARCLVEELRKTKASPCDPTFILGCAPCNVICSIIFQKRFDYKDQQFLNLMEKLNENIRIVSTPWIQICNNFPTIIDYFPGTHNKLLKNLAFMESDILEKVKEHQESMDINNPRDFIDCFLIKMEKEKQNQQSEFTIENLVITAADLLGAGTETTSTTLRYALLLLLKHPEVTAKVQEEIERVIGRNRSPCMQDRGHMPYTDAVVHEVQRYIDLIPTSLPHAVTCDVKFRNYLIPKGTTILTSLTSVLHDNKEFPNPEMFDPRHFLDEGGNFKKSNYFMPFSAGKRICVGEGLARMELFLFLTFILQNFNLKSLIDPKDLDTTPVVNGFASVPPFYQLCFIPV
Chain of Albumin (P02769 whole entry): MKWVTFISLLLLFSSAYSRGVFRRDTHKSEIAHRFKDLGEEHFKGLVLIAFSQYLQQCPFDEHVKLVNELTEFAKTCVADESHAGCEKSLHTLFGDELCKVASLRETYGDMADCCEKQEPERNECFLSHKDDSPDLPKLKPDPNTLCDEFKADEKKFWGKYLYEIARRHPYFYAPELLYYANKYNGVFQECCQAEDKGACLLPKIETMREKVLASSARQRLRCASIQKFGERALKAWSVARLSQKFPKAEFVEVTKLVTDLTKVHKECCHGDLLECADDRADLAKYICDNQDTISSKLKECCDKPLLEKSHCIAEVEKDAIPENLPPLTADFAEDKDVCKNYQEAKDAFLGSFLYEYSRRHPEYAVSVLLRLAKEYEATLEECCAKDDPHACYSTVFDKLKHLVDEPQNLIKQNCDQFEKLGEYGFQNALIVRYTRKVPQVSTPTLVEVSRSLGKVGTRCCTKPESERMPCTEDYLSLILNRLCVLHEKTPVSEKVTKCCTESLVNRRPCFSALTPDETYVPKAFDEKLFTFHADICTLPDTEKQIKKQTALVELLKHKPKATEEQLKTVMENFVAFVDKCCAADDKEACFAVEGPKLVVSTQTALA
Chain of Cytochrome P450 2C9 (P11712 whole entry): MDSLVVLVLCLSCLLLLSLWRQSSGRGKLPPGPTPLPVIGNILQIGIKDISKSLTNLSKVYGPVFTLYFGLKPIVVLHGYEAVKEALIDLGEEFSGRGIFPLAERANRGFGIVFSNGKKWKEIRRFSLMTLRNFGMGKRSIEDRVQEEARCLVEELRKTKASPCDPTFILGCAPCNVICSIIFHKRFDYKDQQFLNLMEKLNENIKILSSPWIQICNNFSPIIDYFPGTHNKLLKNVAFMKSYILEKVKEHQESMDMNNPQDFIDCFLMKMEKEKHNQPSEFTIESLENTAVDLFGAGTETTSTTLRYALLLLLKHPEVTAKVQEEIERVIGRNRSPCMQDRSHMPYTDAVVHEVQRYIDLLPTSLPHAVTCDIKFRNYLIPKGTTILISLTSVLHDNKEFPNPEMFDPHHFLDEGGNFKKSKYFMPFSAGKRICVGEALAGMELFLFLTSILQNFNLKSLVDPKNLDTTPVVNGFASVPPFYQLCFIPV

Cc1cc(/C=N/n2c(COc3ccccc3C)nc3ccccc3c2=O)c(O)c([N+](=O)[O-])c1
EC50 [1]: > 150 µM (inactive)
EC50 [2]: 1.37 µM (active)
EC50 [3]: 1 µM (active)
EC50 [4]: 6.51 µM (active)
IC50 [5]: 4.58 µM (active)
AC50 (INS1): 2.99 µM (active)
IC50 (Albumin): > 94.1 µM (inactive)

c1ccc(CN2C[C@@H]3N[C@H](C2)[C@@H]3c2ccc(-c3ccncc3)cc2)cc1
AC50 [6]: 3.96 µM (active)
AC50 [7]: 18 µM (active)
AC50 [8]: 2.35 µM (active)
AC50 [9]: 1.54 µM (active)
AC50 [10]: > 39 µM (inactive)
AC50 [11]: 1.66 µM (active)

OC[C@H]1[C@H](c2ccc(Br)cc2)[C@@H]2CN(Cc3ccccn3)CCCCN12
AC50 [12]: 3.71 µM (active)

O=[N+]([O-])c1cc(CN2CCN(c3cccc(C(F)(F)F)c3)CC2)c2cccnc2c1O
EC50 [3]: 0.493 µM (active)
EC50 [4]: 4.99 µM (active)
AC50 [13]: 3.53 µM (active)
AC50 (Caspase-6): 33.8 µM (active)
CC50 [14]: 2.18 µM (active)

CCOC(=O)Cc1cc(O)n2nc(C)c(-c3ccccc3)c2n1
AC50 (Cytochrome P450 2C19): 22.4 µM (inconclusive)
Ki (fMet-Leu-Phe receptor): 36.8 µM (inactive)
AC50 (Cytochrome P450 2C9): 39.8 µM (inconclusive)

COc1ccc(CN2C[C@H](C)[C@@H](OC)CN(C)C(=O)c3ccc(NC(=O)c4nc5ccccc5s4)cc3OC[C@@H]2C)cc1
AC50 [6]: 5.03 µM (active)
AC50 [7]: 67.3 µM (active)
AC50 [8]: 2.9 µM (active)
AC50 [9]: 2.64 µM (active)
AC50 [11]: 3.82 µM (active)

CCOC(=O)N1CCN(C(C(=O)NC2CCCC2)C(C)C)CC1 (stereo unspecified)
AC50 (Caspase-6): 12.2 µM (active)

COc1cc(NC(C)=O)c2ncccc2c1[N+](=O)[O-]
IC50 [15]: > 50 µM (not active)
IC50 [16]: > 50 µM (not active)

C=CCN1C(=O)[C@@H](CC(=O)N2CCSCC2)[C@]2(C(=O)OC)CCCCC=C12
EC50 [17]: > 67.5 µM (inactive)
